Measurements taken from US20120177698A1, “AGGREGATES WITH INCREASED DEFORMABILITY, COMPRISING AT LEAST THREE AMPHIPATS, FOR IMPROVED TRANSPORT THROUGH SEMI-PERMEABLE BARRIERS AND FOR THE NON-INVASIVE DRUG APPLICATION IN VIVO, ESPECIALLY THROUGH THE SKIN” (priority 2002, published 2012).

Assay: Barrier transport resistance, simple experimental method (SEM), filtration through 0.2 micrometer filter
Type: physicochemical
Settings: Examples 121-129; relative SDS concentration in SPC/Tween 80 bilayer; some uncertainty in the 2-6 mol % region
Text: In first approximation one relies on simple experimental method (SEM) and takes barrier transport resistance (in arbitrary units) to be proportional to the pressure (in arbitrary units) needed to drive a suspension of relatively large vesicles through a 0.2 micrometer filter with good efficacy. […] Barrier penetrability, which in older publications is called permeability, is identified with inverse barrier resistance value. […] Drug Delivery Rev. 18:349-378 (1996).
Transport (pore penetration) capability. […] The trend is enhanced by the presence of sodium dodecylsulphate in the mixed lipid aggregates. The later shifts the minimum amount of Tween needed to cross the semi-permeable barrier to increasingly lower relative concentration values.
Transport ability ([…] capability and adaptability) of aggregate suspension. To characterise the resistance of semi-permeable barrier to suspension flux (=transbarrier flux), the same method as in examples 1-120 was used. The resistance was measured as a function of relative SDS concentration in bilayer, to determine minimum amount of this latter surfactant that is needed to maximise suspension flux across the barrier and minimises the barrier transport resistance value. […] This is consistent with the results of first test series (examples 1-120) except in that the measured resistance values are now somewhat higher. […]

## CCCCCCCCCCCCOS(=O)(=O)[O-].[Na+] [SDS, Sodium dodecylsulphate]
  threshold limit: minimum amount of SDS needed to minimise barrier transport resistance: around 6 mol-%
